Reference: patent publication US20040097420A1, “Proteasome regulation of NF-kB activity” (Harvard College, priority 1994, published 2004)
Non-standard residues stand in square brackets, D forms with d. Residues, ends and D or L forms follow the SMILES beside them. *: point of attachment. Tyr(3,5-Br2) = N[C@@H](Cc1cc(Br)c(O)c(Br)c1)C(=O)O; Tyr(3,5-I2) = N[C@@H](Cc1cc(I)c(O)c(I)c1)C(=O)O; Phe(4-Cl) = N[C@@H](Cc1ccc(Cl)cc1)C(=O)O; 1Nal = N[C@@H](Cc1cccc2ccccc12)C(=O)O; 2Nal = N[C@@H](Cc1ccc2ccccc2c1)C(=O)O; tBuAla = CC(C)(C)C[C@H](N)C(=O)O; Cha = N[C@@H](CC1CCCCC1)C(=O)O; AllylGly = C=CC[C@H](N)C(=O)O; Phg = N[C@H](C(=O)O)c1ccccc1; Pra = C#CC[C@H](N)C(=O)O; Nva = CCC[C@H](N)C(=O)O; Cbz = O=C(OCc1ccccc1)*

Assays:
[1] = target: T1, 26S proteasome (Oryctolagus cuniculus, UniProt G1T4Q9); test: Inhibition of the 26S proteasome (kinetic experiments, Ki); format: biochemical; conditions: Rabbit muscle; substrate Suc-LLVY-AMC; [Mg:ATP] = 2 mM
T1 sequence (G1T4Q9 1-263): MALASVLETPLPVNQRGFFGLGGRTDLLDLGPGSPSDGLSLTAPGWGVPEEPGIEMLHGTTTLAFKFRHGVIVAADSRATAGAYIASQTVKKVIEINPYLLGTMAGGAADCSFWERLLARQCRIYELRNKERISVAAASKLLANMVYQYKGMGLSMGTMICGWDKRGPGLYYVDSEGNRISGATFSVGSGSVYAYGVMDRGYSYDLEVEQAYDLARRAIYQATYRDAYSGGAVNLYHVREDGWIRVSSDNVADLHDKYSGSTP
Description: (§1) Tables I-III summarize results from kinetic experiments that measured the inhibition of the 20S and 26S proteasomes, as well as cathepsin B and calpain. In these tables, Ki values are reported, which are dissociation constants for the equilibrium that is established when enzyme and inhibitor interact to form the enzyme:inhibitor complex.
(§2) The substances and assay conditions are briefly summarized in the footnotes to Table I. MG 101 and MG 102, also known as Calpain Inhibitor I and II, were purchased from Calbiochem as catalogue products.

[2] = target: T2, 20S Proteasome (Oryctolagus cuniculus, UniProt G1T4Q9); test: Inhibition of the 20S proteasome (kinetic experiments, Ki); format: biochemical, Rabbit; parameters: Ki 20 S; substrate Suc-LLVY-AMC; conditions: Rabbit muscle, SDS-activated; substrate Suc-LLVY-AMC
T2 sequence (G1T4Q9 1-263): T1 sequence (G1T4Q9 1-263)
Description: as §1, §2
(§3) Table V summarizes data for the inhibition of the 20S proteasome by various tripeptide aldehyde inhibitors.

[3] = target: T3, cathepsin B (Bos taurus, UniProt P07688); test: Inhibition of cathepsin B (Ki); format: biochemical; conditions: Bovine spleen; substrate Z-RR-AMC; [DTT] = 2 mM, [EDTA] = 5 mM, pH 5.5, 37° C.; read-out: Ki Cat B
T3 construct: Bovine spleen; Substrate: Z-RR-AMC; from tissue; host or cells: bovine spleen
Description: as §1

[4] = target: calpain, 80 kD catalytic subunit; test: Inhibition of calpain (Ki); format: biochemical; conditions: Rabbit muscle, substrate Suc-LLVY-AMC, [CaCl2] = 1 mM, [DTT] = 2 mM, pH 7.8, 20° C.
Description: as §1

[5] = target: T4, 20S proteasome (Oryctolagus cuniculus, UniProt G1T4Q9); test: Inhibition of the 20S proteasome (kinetic experiments, Ki); format: biochemical, Rabbit; conditions: Table V, miscellaneous tripeptide aldehydes; 20S proteasome
T4 sequence (G1T4Q9 60-263): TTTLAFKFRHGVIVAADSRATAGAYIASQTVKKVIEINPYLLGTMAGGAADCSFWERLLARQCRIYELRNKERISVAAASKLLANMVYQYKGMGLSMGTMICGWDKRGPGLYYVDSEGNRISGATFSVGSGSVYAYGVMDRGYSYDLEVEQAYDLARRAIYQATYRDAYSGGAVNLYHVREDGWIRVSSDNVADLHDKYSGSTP
Description: as §1, §2, §3

| Structure (SMILES) | Ki [5] [nM] | also measured |
| --- | --- | --- |
| CC(C)C[C@H](NC(=O)OCc1ccccc1)C(=O)N[C@@H](CC(C)C)C(=O)N[C@H](C=O)Cc1ccc2ccccc2c1 [MG 121, Z-Leu-Leu-Nal-H] (Cbz-Leu-Leu-[2Nal]-aldehyde) |  | Ki [1]: 70 nM; Ki [2]: 25 nM; Ki [3]: 73 nM; Ki [4]: 62 nM |
| CCC[C@@H](C=O)NC(=O)[C@H](CC(C)C)NC(=O)[C@H](Cc1cccc2ccccc12)NC(=O)OCc1ccccc1 [MG 142] (Cbz-[1Nal]-Leu-[Nva]-aldehyde) | 0.3 |  |
| CC(C)C[C@@H](C=O)NC(=O)[C@H](CC(C)C)NC(=O)[C@H](Cc1cccc2ccccc12)NC(=O)OCc1ccccc1 [MG 150] (Cbz-[1Nal]-Leu-Leu-aldehyde) | 0.4 |  |
| C#CC[C@@H](C=O)NC(=O)[C@H](CC(C)C)NC(=O)[C@H](CC(C)C)NC(=O)OCc1ccccc1 [MG 140] (Cbz-Leu-Leu-[Pra]-aldehyde) | 28 |  |
| C=CC[C@@H](C=O)NC(=O)[C@H](CC(C)C)NC(=O)[C@H](CC(C)C)NC(=O)OCc1ccccc1 [MG 139] (Cbz-Leu-Leu-[AllylGly]-aldehyde) | 20 |  |
| CC(C)C[C@H](NC(=O)OCc1ccccc1)C(=O)N[C@@H](CC(C)C)C(=O)N[C@H](C=O)CC(C)(C)C [MG 136] (Cbz-Leu-Leu-[tBuAla]-aldehyde) | 1000 |  |
| CC(C)C[C@H](NC(=O)OCc1ccccc1)C(=O)N[C@@H](CC(C)C)C(=O)N[C@@H](C)C=O [MG 111] (Cbz-Leu-Leu-Ala-aldehyde) |  | Ki [1]: 690 nM; Ki [2]: 210 nM; Ki [3]: 6 nM; Ki [4]: 11 nM |
| COC(=O)C(=O)[C@H](Cc1ccccc1)NC(=O)[C@H](CC(C)C)NC(=O)[C@H](CC(C)C)NC(=O)OCc1ccccc1 [MG 113, Z-Leu-Leu-Phe-C(O)—OMe] |  | Ki [1]: 1300 nM; Ki [2]: 690 nM; Ki [3]: < 4 nM; Ki [4]: 45 nM |
| CCC[C@@H](C=O)NC(=O)[C@H](CC(C)C)NC(=O)[C@H](CC1CCCCC1)NC(=O)OCc1ccccc1 [MG 141] (Cbz-[Cha]-Leu-[Nva]-aldehyde) | 50 |  |
| CC(C)C[C@@H](C=O)NC(=O)[C@H](CC(C)C)NC(=O)[C@H](CC(C)C)NC(=O)OCc1ccccc1 [MG 132] (Cbz-Leu-Leu-Leu-aldehyde) | 9 |  |
| CC(C)C[C@H](NC(=O)OCc1ccccc1)C(=O)N[C@@H](CC(C)C)C(=O)N[C@H](C=O)c1ccccc1 [MG 133] (Cbz-Leu-Leu-[Phg]-aldehyde) | 470 |  |

The next lines start with results.

| Ki [5] [nM] | Structure (SMILES) | also measured |
| --- | --- | --- |
| 64 | CC(C)C[C@H](NC(=O)OCc1ccccc1)C(=O)N[C@@H](CC(C)C)C(=O)N[C@H](C=O)Cc1cc(I)c(O)c(I)c1 [MG 161] (Cbz-Leu-Leu-[Tyr(3,5-I2)]-aldehyde) |  |
| 0.035 | CC(C)C[C@@H](C=O)NC(=O)[C@H](Cc1cccc2ccccc12)NC(=O)[C@H](Cc1cccc2ccccc12)NC(=O)OCc1ccccc1 [MG 166] (Cbz-[1Nal]-[1Nal]-Leu-aldehyde) |  |
| 0.015 | CC(C)C[C@@H](C=O)NC(=O)[C@H](Cc1cccc2ccccc12)NC(=O)[C@H](Cc1ccc2ccccc2c1)NC(=O)OCc1ccccc1 [MG 167] (Cbz-[2Nal]-[1Nal]-Leu-aldehyde) |  |
| 10 | CC(C)C[C@H](NC(=O)OCc1ccccc1)C(=O)N[C@@H](CC(C)C)C(=O)N[C@H](C=O)Cc1c[nH]c2ccccc12 [MG 151] (Cbz-Leu-Leu-Trp-aldehyde) |  |
| 7 | CC(C)C[C@H](NC(=O)OCc1ccccc1)C(=O)N[C@@H](CC(C)C)C(=O)N[C@H](C=O)Cc1ccc(Cl)cc1 [MG 158] (Cbz-Leu-Leu-[Phe(4-Cl)]-aldehyde) |  |
| 6 | COc1ccc(C[C@@H](C=O)NC(=O)[C@H](CC(C)C)NC(=O)[C@H](CC(C)C)NC(=O)OCc2ccccc2)cc1 [MG 152] (Cbz-Leu-Leu-Tyr(Me)-aldehyde) |  |
| 51 | CC(C)C[C@H](NC(=O)OCc1ccccc1)C(=O)N[C@@H](CC(C)C)C(=O)N[C@H](C=O)Cc1cc(Br)c(O)c(Br)c1 [MG 160] (Cbz-Leu-Leu-[Tyr(3,5-Br2)]-aldehyde) |  |
